Test results as given in publication PMC9597602, “Metal Complexes as Antifungals? From a Crowd-Sourced Compound Library to the First In Vivo Experiments” (JACS Au, 2022).
Values joined by “and” are separate entries in the source; they are usually repeats but may differ in a detail not shown here. Identical values can stand only once. Like-named read-outs stand apart in the source and are kept apart here. Starred links: 1 amine or outer side, 2 acyl side, 3 side chain; linkers in the order of their positions; H or OH if unused. Positions of bridges follow the written chain, without caps; N, C: chain ends. Non-standard residues stand in square brackets, D forms with d. Residues, ends and D or L forms follow the SMILES beside them. *: point of attachment. pTerphenylCO(4''-OnC5H11) = CCCCCOc1ccc(-c2ccc(-c3ccc(C(=O)*)cc3)cc2)cc1; Orn(4R-OH,5R-OH) = O=C([C@H](C[C@@H](O)[C@@H](O)N[*:3])N[*:1])[*:2]; hTyr(3S-OH,4S-OH) = N[C@H](C(=O)O)[C@H](O)[C@@H](O)c1ccc(O)cc1; Pro(3S-OH,4S-Me) = C[C@H]1CN[C@H](C(=O)O)[C@H]1O; Hyp = O=C(O)[C@@H]1C[C@@H](O)CN1

Tests used:
Type in all cases: cell-based
[1] = test system: Candida albicans ATCC 90028 NCCLS11; assay: Antifungal MIC assay; conditions: Candida albicans, ATCC90028, comparator antifungals, read-out: MIC* Candida albicans ATCC 90028
Procedure: For the fungal assays, both fungi (yeast) strains were cultured for 3 days on Yeast Extract-Peptone Dextrose (YPD; Becton Dickinson 242720) agar at 30 °C. A yeast suspension of 1 × 10^6 to 5 × 10^6 CFU/mL (as determined by OD530) was prepared from five colonies from the agar plates, subsequently diluted with Yeast Nitrogen Base media (YNB; Becton Dickinson 233520), and added to each well of the compound containing plates (384-well plates, NBS; Corning CLS3640), giving a final cell density of 2.5 × 10^3 CFU/mL and a total volume of 50 μL. Plates were covered and incubated at 35 °C for 36 h without shaking. […] […], equivalent to ″optically clear-to-slightly hazy″ or MIC score of 0–1 as per CLSI guidelines M27 Reference Method for Broth Dilution Antifungal Susceptibility Testing of Yeasts. […] Fluconazole (Sigma F8929) was used as internal control on each plate for all strains. All compounds were tested as two technical replicates in two to four independent biological assays, n = 4–8 final data.

[2] = test system: Cryptococcus neoformans H99 ATCC 208821 type strain; assay: Antifungal MIC assay; conditions: Cryptococcus neoformans
Procedure: (§1) For the fungal assays, both fungi (yeast) strains were cultured for 3 days on Yeast Extract-Peptone Dextrose (YPD; Becton Dickinson 242720) agar at 30 °C. A yeast suspension of 1 × 10^6 to 5 × 10^6 CFU/mL (as determined by OD530) was prepared from five colonies from the agar plates, subsequently diluted with Yeast Nitrogen Base media (YNB; Becton Dickinson 233520), and added to each well of the compound containing plates (384-well plates, NBS; Corning CLS3640), giving a final cell density of 2.5 × 10^3 CFU/mL and a total volume of 50 μL. Plates were covered and incubated at 35 °C for 36 h without shaking. […] MIC values were recorded as the lowest concentration at which the growth was inhibited by ≥80%, equivalent to ″optically clear-to-slightly hazy″ or MIC score of 0–1 as per CLSI guidelines M27 Reference Method for Broth Dilution Antifungal Susceptibility Testing of Yeasts. […] Fluconazole (Sigma F8929) was used as internal control on each plate for all strains. All compounds were tested as two technical replicates in two to four independent biological assays, n = 4–8 final data.

[3] = test system: Candida auris CBS10913 JCM 15448; assay: Antifungal MIC assay, extended panel; conditions: Candidozyma auris, comparator antifungals, read-out: MIC* Candida auris CBS10913
Procedure: (§2) For the fungal assays, both fungi (yeast) strains were cultured for 3 days on Yeast Extract-Peptone Dextrose (YPD; Becton Dickinson 242720) agar at 30 °C. A yeast suspension of 1 × 10^6 to 5 × 10^6 CFU/mL (as determined by OD530) was prepared from five colonies from the agar plates, subsequently diluted with Yeast Nitrogen Base media (YNB; Becton Dickinson 233520), and added to each well of the compound containing plates (384-well plates, NBS; Corning CLS3640), giving a final cell density of 2.5 × 10^3 CFU/mL and a total volume of 50 μL. Plates were covered and incubated at 35 °C for 36 h without shaking. […] MIC […] Reference Method for Broth Dilution Antifungal Susceptibility Testing of Yeasts. […] Fluconazole (Sigma F8929) was used as internal control on each plate for all strains. All compounds were tested as two technical replicates in two to four independent biological assays, n = 4–8 final data.

[4] = test system: Candida auris CBS12373 KCTC 17810; assay: Antifungal MIC assay, extended panel; conditions: Candidozyma auris, comparator antifungals, read-out: MIC* Candida auris CBS12373
Procedure: as §2

[5] = test system: Candida glabrata ATCC 90030 NCCLS 84; assay: Antifungal MIC assay, extended panel; conditions: Nakaseomyces glabratus, ATCC90030, comparator antifungals
Procedure: as §1

[6] = test system: Cryptococcus deuterogattii ATCC 32609 VGII; assay: Antifungal MIC assay, extended panel; conditions: Cryptococcus deuterogattii, ATCC32609, comparator antifungals
Procedure: as §1

[7] = test system: Candida tropicalis ATCC 750; assay: Antifungal MIC assay, extended panel; conditions: Candida tropicalis, ATCC750, comparator antifungals
Procedure: as §1

[8] = test system: Cryptococcus deuterogattii CBS7750 VGII; Serotype B; assay: Antifungal MIC assay, extended panel; conditions: Cryptococcus deuterogattii, CBS7750, comparator antifungals
Procedure: as §1

[9] = ≥80% inhibition, converted with MW of Table S12
[10] = ATCC208821, comparator antifungals, MIC = ≥80% inhibition, read-out: MIC* Cryptococcus neoformans ATCC 208821
[11] = ATCC208821, comparator antifungals, ≥80% inhibition, converted with MW of Table S12, read-out: MIC* Cryptococcus neoformans ATCC 208821

Structure (SMILES) | MIC ([1]; MIC = ≥80% inhibition) [µg/mL] | MIC [1, 9] [µM] | MIC [2, 10] [µg/mL] | MIC [2, 11] [µM] | MIC ([3]; MIC = ≥80% inhibition) [µg/mL] | MIC [3, 9] [µM] | MIC ([4]; MIC = ≥80% inhibition) [µg/mL] | MIC [4, 9] [µM] | MIC ([5]; MIC = ≥80% inhibition) [µg/mL] | MIC [5, 9] [µM] | MIC ([6]; MIC = ≥80% inhibition) [µg/mL] | MIC ([7]; MIC = ≥80% inhibition) [µg/mL] | MIC [7, 9] [µM] | MIC ([8]; MIC = ≥80% inhibition) [µg/mL] | MIC [8, 9] [µM] | MIC [6, 9] [µM] | MIC ([2]; ATCC208821, read-out: MIC* Cryptococcus neoformans ATCC 208821)
CC[C@H](C)C[C@H](C)CCCCCCCCC(=O)N[C@H]1C[C@@H](O)[C@@H](NCCN)NC(=O)[C@@H]2[C@@H](O)CCN2C(=O)[C@H]([C@H](O)CCN)NC(=O)[C@H]([C@H](O)[C@@H](O)c2ccc(O)cc2)NC(=O)[C@@H]2C[C@@H](O)CN2C(=O)[C@H]([C@@H](C)O)NC1=O [Caspofungin, reference compound] | 0.391 to 1.56 | 0.357 to 1.43 | 0.098 to 1.56 | 0.089 to 1.43 | 6.25 | 5.72 | 12.5 | 11.4 | 6.25 to 12.5 | 5.72 to 11.4 | 0.1 to 0.63 | 1.56 | 1.43 | 0.06 to 0.1 | 0.029 to 0.089 |  | 
C[C@@H]1[C@H](O)[C@@H](C)/C=C/C=C/C=C/C=C/C=C/C=C/C=C/[C@H](O[C@@H]2O[C@H](C)[C@@H](O)[C@H](N)[C@@H]2O)C[C@@H]2O[C@](O)(C[C@@H](O)C[C@@H](O)[C@H](O)CC[C@@H](O)C[C@@H](O)CC(=O)O[C@H]1C)C[C@H](O)[C@H]2C(=O)O [Amphotericin B, reference compound] | 0.125 to 1 | 0.192 to 1.53 | 2 to 8 | 3.01 to 12.3 | 16 | 24.5 | > 128 | ≥ 196 | ≥ 64 | ≥ 98.2 | 4 to 16 | 2 to 4 | 3.01 to 6.13 | 1 to 8 | 1.53 to 12.3 | 6.13 to 24.5 | 
CCCCCOc1ccc(-c2ccc(-c3ccc(C(=O)N[C@H]4C[C@@H](O)[C@@H](O)NC(=O)[C@@H]5[C@@H](O)[C@@H](C)CN5C(=O)[C@H]([C@@H](C)O)NC(=O)[C@H]([C@H](O)[C@@H](O)c5ccc(O)cc5)NC(=O)[C@@H]5C[C@@H](O)CN5C(=O)[C@H]([C@@H](C)O)NC4=O)cc3)cc2)cc1 [Anidulafungin, reference compound] ({pTerphenylCO(4''-OnC5H11)}-[Orn(4R-OH,5R-OH)]T[Hyp][hTyr(3S-OH,4S-OH)]T[Pro(3S-OH,4S-Me)]; lactam 1-C) | 0.031 to 0.125 | 0.027 to 0.11 |  |  | 0.031 to 0.125 | 0.027 to 0.11 | 0.25 | 0.219 | 0.008 | 0.007 | 0.003 to 0.25 | 0.004 to 0.008 | 0.003 to 0.007 | 0.06 to 0.25 | 0.055 to 0.219 | 0.003 to 0.219 | 0.016 µg/mL to 0.125 µg/mL and 0.014 µM to 0.11 µM
CCC(C)n1ncn(-c2ccc(N3CCN(c4ccc(OCC5COC(Cn6cncn6)(c6ccc(Cl)cc6Cl)O5)cc4)CC3)cc2)c1=O (stereo not shown) [Itraconazole, reference compound] | 0.062 to 0.25 | 0.089 to 0.354 | 1 to 2 | 1.42 to 2.83 | 0.063 | 0.089 | 2 | 2.83 | 32 | 45 | 2 to 8 | 2 | 2.83 | 2 to 4 | 2.83 to 5.67 | 2.83 to 11.3 | 
CC[C@@H]([C@H](C)O)n1ncn(-c2ccc(N3CCN(c4ccc(OC[C@@H]5CO[C@@](Cn6cncn6)(c6ccc(F)cc6F)C5)cc4)CC3)cc2)c1=O [Posaconazole, reference compound] | 0.001 to 0.031 | 0.002 to 0.063 | 0.016 to 0.125 | 0.032 to 0.253 | 0.031 to 0.063 | 0.063 to 0.126 | 2 | 4.04 | 2 | 4.04 | 0.015 to 0.25 | 0.125 | 0.253 | 0.06 to 0.125 | 0.126 to 0.253 | 0.032 to 0.506 | 
Nc1nc(=O)[nH]cc1F [5-Fluorocytosine, reference compound] | ≤ 0.001 | ≤ 0.012 | 0.001 to 0.016 | 0.0107 to 0.172 | ≤ 0.002 | ≤ 0.021 | ≤ 0.002 | ≤ 0.021 | > 32 | > 351 | 0.002 to 0.25 | 0.001 to 0.002 | 0.012 to 0.021 | 0.06 to 0.25 | 0.686 to 2.75 | 0.021 to 2.75 | 
